US12023390B2, “Isomerically pure 18F-labelled tetrahydrofolates” (MERCK PATENT GMBH, priority 2017, dated 2024)
Where two headings read alike, the source gives them in different places.

Columns and labels:
[1] = system: KB tumor-bearing mice; test: Biodistribution studies in KB tumor-bearing mice
Description: Biodistribution studies were performed 2 weeks after cell inoculation. The ^18F-folate radiotracers (˜5 MBq/mouse) were injected in a volume of 100 μL into a lateral tail vein. The animals were sacrificed at 30 min, 60 min and 90 min after administration of radiotracers. Selected tissues and organs were collected, weighed, and radioactivity was measured using a γ-counter. The results were listed as a percentage of the injected radioactivity per gram of tissue mass (% IA/g), using counts of a defined volume of the original injection solution measured at the same time resulting in decay corrected values.

[2] = Metabolite studies / in vivo stability (radio-UPLC of blood plasma, liver, urine); set-up: species or system mice
Description: (§1) In order to investigate FR-specific cell uptake and internalization, cell uptake and internalization of 6R-[^18F]1 and 6S-[^18F]1 were carried out using FR-positive KB cells. Cell uptake increased constantly over time for both diastereoisomers resulting in an uptake of about 60% (calculated per 0.3 mg of protein) of total added radioactivity after 3 h of incubation at 37° C. (FIG. 22).
The folate radiotracer 6S/6R-[^18F]5 (1:1 ratio, 53.7-52.3 MBq; 0.62-1.15 nmol) were intravenously injected into mice in order to determine the in vivo stability of the tracers. […] Ice-cold methanol containing 10 mg/mL 2-mercaptoethanol and 0.025% (v/v) ammonium hydroxide was added to the blood plasma, homogenized liver and urine in order to precipitate the proteins.^6 After centrifugation, the supernatants of the blood plasma, liver and urine samples were analyzed by radio-UPLC (FIG. 4).

[3] = molecular target: T1, D4 (FR-β) (Homo sapiens, UniProt P14207); test: Cell uptake and internalization in FR-β transfected CHO cells (D4); format: cell-based; conditions: for uptake into D4 cells (in words): D4 (FR-β) cells; for internalized fraction / uptake: D4 cells
T1 construct: expressed in transfected cells; host or cells: CHO cells (D4)
T1 sequence (P14207 17-230): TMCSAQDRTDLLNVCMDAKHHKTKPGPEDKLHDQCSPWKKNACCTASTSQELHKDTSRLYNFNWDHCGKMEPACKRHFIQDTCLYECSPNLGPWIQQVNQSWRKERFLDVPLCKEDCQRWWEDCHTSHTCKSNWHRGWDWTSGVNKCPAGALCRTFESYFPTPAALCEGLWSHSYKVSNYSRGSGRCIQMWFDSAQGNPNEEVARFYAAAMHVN
Description: (§2) The uptake and internalization of the oxidized (^18F-AzaFol) and reduced ^18F-folates (6S-isomer and 6R-isomer of ^18F-5-Me-Aza-THF) in D4 and RT16 cells which express the FR-α and FR-β, […] was studied. Both cell lines were kindly provided by Larry Matherly Wayne State University, Detroit, U.S.; Golani et al., J Med Chem, 2016, 59, 7856.
When using D4 cells that express the FR-β, the uptake of ^18F-AzaFol and the 6S-isomer of the reduced radiotracer reached approximately 70% after 1 h incubation and 80% after 3 h incubation. The internalized fraction of ^18F-AzaFol and the 6S-isomer of the reduced version was 20% and 12%, respectively, after 1 h incubation. These numbers increased slightly when the incubation time was extended to 3 h. […] No change was observed after additional two hours of incubation.

[4] = system: KB tumor xenografts
[5] = system: FR-positive KB cells; test: Cell uptake and internalization using FR-positive KB cells; format: cell-based
Description: as §1

[6] = molecular target: T2, RT16 (FR-α) (Homo sapiens, UniProt P15328); test: Cell uptake and internalization in FR-α transfected CHO cells (RT16); format: cell-based
T2 construct: expressed in transfected cells; host or cells: CHO cells (RT16)
T2 sequence (P15328 25-234): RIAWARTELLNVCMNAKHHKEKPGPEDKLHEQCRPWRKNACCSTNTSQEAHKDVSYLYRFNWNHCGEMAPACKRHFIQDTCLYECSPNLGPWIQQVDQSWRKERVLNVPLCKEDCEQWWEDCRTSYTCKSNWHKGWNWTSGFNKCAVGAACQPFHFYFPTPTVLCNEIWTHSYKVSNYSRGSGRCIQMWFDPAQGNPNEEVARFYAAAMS
Description: as §2
The internalized fraction of the radiotracers reached 8-10% after 1 h and increased slightly up to 9-12% after 3 h incubation.

[7] = Distribution coefficient (log D7.4), shake flask method; format: physicochemical; conditions: n-octanol / phosphate buffer pH 7.4, room temperature
Description: The samples were shaken for 15 min in an overhead shaker and centrifuged for 3 min at 5000 rpm to separate the two phases. Aliquots (50 μL) of both phases were added to Eppendorftubes and then, analyzed in a γ-counter (Wizard, PerkinElmer). The partition coefficient is expressed as the radio between the radioactivity concentrations (cpm/mL) of the n-octanol and the phosphate buffer phase. Values represent the mean±standard deviation of sextuples from two independent experiments.

[8] = molecular target: T3, FR-α (Homo sapiens, UniProt P15328); test: Displacement assay with [^3H]folic acid using KB cells; format: binding; conditions: for fold lower affinity to the FR-α compared to the oxidized form: versus 3′-aza-2′-fluorofolic acid
T3 construct: endogenous in cells; host or cells: KB cells
T3 sequence (P15328 25-234): as above

[9] = KB tumor-bearing mice, 30 min p.i.
[10] = KB tumor-bearing mice, 30 min p.i., ratio
[11] = KB tumor-bearing mice, 60 min p.i.
[12] = KB tumor-bearing mice, 60 min p.i. & Folic Acid (100 μg 10 min prior)
[13] = KB tumor-bearing mice, 60 min p.i., ratio
[14] = KB tumor-bearing mice, 90 min p.i.
[15] = KB tumor-bearing mice, 90 min p.i., ratio
[16] = KB tumor-bearing mice, 90 min p.i., listed as 6R-form
[17] = KB tumor-bearing mice, 90 min p.i., listed as 6R-isomer
[18] = KB cells, displacement of [^3H]folic acid, n = 3

## 6R-3′-aza-2′-[^18F]fluoro-5-MTHF [6R-[^18F]1]
[1]; [9]
  Biodistribution: Blood: 3.13 ± 0.31 % IA/g
  Biodistribution: Bone: 2.73 ± 0.14 % IA/g
  Biodistribution: Feaces: 12.2 ± 3.54 % IA/g
  Biodistribution: Gall Bladder: 37.5 ± 11.7 % IA/g
  Biodistribution: Heart: 2.75 ± 0.33 % IA/g
  Biodistribution: Intestines: 7.68 ± 1.28 % IA/g
  Biodistribution: KB Tumor: 13.3±1.80 % IA/g
  Biodistribution: Kidneys: 34.5 ± 2.45 % IA/g
  Biodistribution: Liver: 14.3 ± 1.36 % IA/g
  Biodistribution: Lung: 3.37 ± 0.32 % IA/g
  Biodistribution: Muscle: 1.54 ± 0.13 % IA/g
  Biodistribution: Salivary glands: 7.16 ± 0.51 % IA/g
  Biodistribution: Spleen: 8.25 ± 0.96 % IA/g
  Biodistribution: Stomach: 2.20 ± 0.23 % IA/g
[1]; [10]
  Tu-to-blood: 4.27 ± 0.61
  Tu-to-liver: 0.94 ± 0.14
[1]; KB tumor-bearing mice, 30 min p.i., listed as 6R-form
  Biodistribution: Kidneys: 34.5±2.45 % IA/g
[1]; KB tumor-bearing mice, 30 min p.i., listed as 6R-tracer
  Biodistribution: Liver: 14.3±1.36 % IA/g
[1]; [11]
  Biodistribution: Blood: 2.16 ± 0.25 % IA/g
  Biodistribution: Bone: 2.43 ± 0.10 % IA/g
  Biodistribution: Feaces: 17.8 ± 5.09 % IA/g
  Biodistribution: Gall Bladder: 39.0 ± 22.17 % IA/g
  Biodistribution: Heart: 2.38 ± 0.18 % IA/g
  Biodistribution: Intestines: 6.93 ± 1.06 % IA/g
  Biodistribution: KB Tumor: 18.1 ± 2.86 % IA/g
  Biodistribution: Kidneys: 27.3 ± 3.07 % IA/g
  Biodistribution: Liver: 14.1 ± 0.80 % IA/g
  Biodistribution: Lung: 2.80 ± 0.29 % IA/g
  Biodistribution: Muscle: 1.36 ± 0.15 % IA/g
  Biodistribution: Salivary glands: 6.49 ± 0.93 % IA/g
  Biodistribution: Spleen: 8.25 ± 0.88 % IA/g
  Biodistribution: Stomach: 2.35 ± 0.49 % IA/g
[1]; [12]
  Biodistribution: Blood: 1.52 ± 0.43 % IA/g
  Biodistribution: Bone: 1.51 ± 0.34 % IA/g
  Biodistribution: Feaces: 15.2 ± 1.75 % IA/g
  Biodistribution: Gall Bladder: 26.5 ± 16.6 % IA/g
  Biodistribution: Heart: 1.60 ± 0.46 % IA/g
  Biodistribution: Intestines: 5.23 ± 0.73 % IA/g
  Biodistribution: KB Tumor: 3.41 ± 0.88 % IA/g
  Biodistribution: Kidneys: 4.80 ± 1.94 % IA/g
  Biodistribution: Liver: 9.64 ± 1.55 % IA/g
  Biodistribution: Lung: 1.73 ± 0.43 % IA/g
  Biodistribution: Muscle: 1.05 ± 0.42 % IA/g
  Biodistribution: Salivary glands: 2.61 ± 0.70 % IA/g
  Biodistribution: Spleen: 3.89 ± 0.40 % IA/g
  Biodistribution: Stomach: 2.02 ± 0.52 % IA/g
[1]; [13]
  Tu-to-blood: 8.47 ± 1.62
  Tu-to-kidney: 0.67 ± 0.14
  Tu-to-liver: 1.29 ± 0.18
[1]; [14]
  Biodistribution: Blood: 1.92 ± 0.19 % IA/g
  Biodistribution: Bone: 3.53 ± 0.90 % IA/g
  Biodistribution: Feaces: 13.1 ± 6.07 % IA/g
  Biodistribution: Gall Bladder: 56.7 ± 13.2 % IA/g
  Biodistribution: Heart: 2.39 ± 0.47 % IA/g
  Biodistribution: Intestines: 8.01 ± 2.72 % IA/g
  Biodistribution: KB Tumor: 23.9 ± 2.74 % IA/g
  Biodistribution: Kidneys: 29.8 ± 7.46 % IA/g
  Biodistribution: Liver: 16.8 ± 3.58 % IA/g
  Biodistribution: Lung: 2.92 ± 0.53 % IA/g
  Biodistribution: Muscle: 1.48 ± 0.31 % IA/g
  Biodistribution: Salivary glands: 7.31 ± 1.17 % IA/g
  Biodistribution: Spleen: 13.0 ± 4.14 % IA/g
  Biodistribution: Stomach: 2.51 ± 0.42 % IA/g
[1]; [15]
  Tu-to-blood: 12.5 ± 1.46
  Tu-to-liver: 1.46 ± 0.26
[1]; [16]
  Biodistribution: Kidneys: 29.8±7.46 % IA/g
  Biodistribution: Liver: 16.8±3.58 % IA/g
  Biodistribution: Salivary glands: 7.31±1.17 % IA/g
[1]; [17]
  Biodistribution: KB Tumor: 23.9±2.74 % IA/g
  Biodistribution: Liver: 16.8±3.58 % IA/g
  Biodistribution: Spleen: 13.0±4.14 % IA/g
[1]; blocking by pre-injection of folic acid
  Specificity of tumor binding: 85%
[1]; from 30 min p.i. to 90 min p.i.
  factor of increase of tumor-to-kidney ratio: 2.1
[2]; samples taken p.i.
  in vivo stability: Only intact parent compounds were found
[3]
  uptake into D4 cells (in words): very low
[3]; 1 h incubation
  internalized fraction: about 1%
  uptake: 3%
[4]; already 1 h p.i.
  PET/CT: KB tumor xenograft uptake: High KB tumor xenograft uptake
[4]; folic acid injected 10 minutes prior to radiotracer
  PET/CT: blocking studies, uptake in all FR-positive tissues: remarkably reduced uptake
[5]; 37° C.
  internalized activity: around 8%
[5]; 3 h incubation at 37° C., calculated per 0.3 mg of protein
  cell uptake (% of total added radioactivity): about 60%
[6]
  uptake into RT16 cells (in words): higher uptake
[7]
  logD7.4: −4.6 ± 0.1

## Nc1nc2ncc(CNc3ccc(C(=O)N[C@@H](CCC(=O)O)C(=O)O)c(F)n3)nc2c(=O)[nH]1 [3′-aza-2′-[^18F]fluorofolic acid, reference compound]
[8]; [18]
  IC50: 1.4 ± 0.5 nM

## CN1c2c(nc(N)[nH]c2=O)NCC1CNc1ccc(C(=O)NC(CCC(=O)O)C(=O)O)c(F)n1 (stereo not drawn) [Compound 6R-1, 6R-3′-Aza-2′-Fluoro-5-Methyltetrahydrofolate]
[8]
  IC50: 27.1 ± 3.7 nM
  fold lower affinity to the FR-α compared to the oxidized form: about 17 fold

## CN1c2c(nc(N)[nH]c2=O)NC[C@H]1CNc1ccc(C(=O)N[C@@H](CCC(=O)O)C(=O)O)cc1 [Compound 6R-5-MTHF, 6R-5-MTHF, reference compound]
[8]; [18]
  IC50: 25.8 ± 5.8 nM

## Nc1nc2ncc(CNc3ccc(C(=O)N[C@@H](CCC(=O)O)C(=O)O)c([18F])n3)nc2c(=O)[nH]1 [3′-aza-2′-[^18F]fluorofolic acid, reference compound]
[2]; comparison tracer
  in vivo stability (radiometabolites): radiometabolites in the liver were detected
[3]
  uptake into D4 cells (in words): significant uptake
[3]; 1 h incubation
  internalized fraction: 20%
  uptake: approximately 70%
[3]; 3 h incubation
  uptake: ~80%
[6]
  uptake into RT16 cells (in words): significant uptake

## CN1c2c(nc(N)[nH]c2=O)NC[C@H]1CNc1ccc(C(=O)N[C@@H](CCC(=O)O)C(=O)O)c(F)n1 [Compound 6S-1, 6S-3′-Aza-2′-Fluoro-5-Methyltetrahydrofolate]
[8]
  IC50: 23.8 ± 4 nM
  fold lower affinity to the FR-α compared to the oxidized form: about 17 fold

## CN1c2c([nH]c(N)nc2=O)NC[C@@H]1CNc1ccc(C(=O)N[C@@H](CCC(=O)O)C(=O)O)cc1 [Compound 6S-5-MTHF, 6S-5-MTHF, reference compound]
[8]; [18]
  IC50: 20.6 ± 0.4 nM
